Measurements from ChEMBL document CHEMBL1201862, “PubChem BioAssay data set” (2004).
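Cultured in 96-well plates, cells were exposed to test compound for 48 hours across five concentrations. The concentration for 50% growth inhibition is given as GI50.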 Active and inactive are the calls of the source. Cut-off read from the data, not from the text of the source: active = GI50 up to about 1.1 µM and inactive = higher.

Tests used:
Assay in all cases: growth of human tumour cells (NCI), 48 h
OVCAR-3 = system: OVCAR-3
EKVX = system: EKVX
UACC-62 = system: UACC-62
NCI-H23 = system: NCI-H23
KM12 = system: KM12
A498 = system: A498
ACHN = system: ACHN
MDA-MB-435 = system: MDA-MB-435
SF-268 = system: SF-268
RXF 393 = system: RXF 393
CCRF-CEM = system: CCRF-CEM
U-251 = system: U-251
SN12C = system: SN12C
TK-10 = system: TK-10
SNB-75 = system: SNB-75
COLO 205 = system: COLO 205
LOX IMVI = system: LOX IMVI
SF-295 = system: SF-295
MCF7 = system: MCF7
K562 = system: K562

Measured: GI50

COc1cc2oc(-c3ccc(O)cc3O)c(CC=C(C)C)c(=O)c2c(O)c1/C=C/C(C)C [ARTOCARPIN]
inactive: OVCAR-3 2.08 µM | EKVX 4.2 µM | UACC-62 3.83 µM | NCI-H23 3.24 µM | KM12 3.1 µM | A498 2.21 µM | ACHN 2.8 µM | MDA-MB-435 1.99 µM | SF-268 2.25 µM | RXF 393 2.12 µM | CCRF-CEM 2.36 µM | U-251 2.56 µM | SN12C 1.81 µM | TK-10 4.85 µM | SNB-75 3.04 µM | COLO 205 4.02 µM | LOX IMVI 1.8 µM | SF-295 3.48 µM | MCF7 2.88 µM | K562 2.12 µM
